From patent publication US12629370B2, “Treatment of prostate cancer” (Sumitomo Pharma Co., Ltd., priority 2016, dated 2026)
Entries after “also recorded” stand apart in the source; their conditions may differ.

Experiments:
[1] = system: patients with advanced prostate cancer; assay: Example 8: quality of life, Aging Male Survey (AMS); type: in vivo, human; settings: Leuprorelin Q12W
Protocol: Quality of life (QoL) was assessed throughout the study and the follow-up period. The 25-item Prostate Cancer Module of the European Organization for Research and Treatment of Cancer Quality of Life Questionnaire (EORTC QLQ-PR25), Aging Male Survey (AMS), and core 30-item EORTC Quality of Life Questionnaire (EORTC QLQ-C30) were completed at screening, day 1 of weeks 5, 13, 25, 37, and 49, and, if applicable, at the follow-up visits.

[2] = system: FSH; assay: Example 8: FSH levels; type: in vivo, human; settings: for FSH Mean (Std Dev) / FSH Median: Leuprorelin Q12W;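 for all read-outs here: FSH determined at every study visit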
[3] = system: serum testosterone; assay: Example 8: serum testosterone in men with advanced prostate cancer, versus leuprolide acetate; type: in vivo, human; settings: for Testosterone Mean (Std Dev) / Testosterone Median / Median testosterone: Leuprorelin Q12W
From the text: Eligible men were aged ≥18 years with a histologically confirmed diagnosis of prostate adenocarcinoma, and were candidates for ADT for the management of hormone-sensitive prostate cancer with one of the following clinical disease states: advanced localized disease not suitable for primary surgical or radiation therapy; evidence of PSA biochemical or clinical relapse following primary surgery or radiation therapy of curative intent; or newly diagnosed metastatic disease that was asymptomatic and without visceral involvement. […] Patients with advanced, localized MON1 or M1 disease with clinically significant symptoms or visceral involvement, who required immediate GnRH therapy, chemotherapy, or radiation therapy were not eligible for the trial.
Serum testosterone levels were measured at each visit.

[4] = system: PSA; assay: Example 8: PSA response; type: in vivo, human
From the text: Eligible men were aged ≥18 years with a histologically confirmed diagnosis of prostate adenocarcinoma, and were candidates for ADT for the management of hormone-sensitive prostate cancer with one of the following clinical disease states: advanced localized disease not suitable for primary surgical or radiation therapy; evidence of PSA biochemical or clinical relapse following primary surgery or radiation therapy of curative intent; or newly diagnosed metastatic disease that was asymptomatic and without visceral involvement. Additional inclusion criteria at screening included: eugonadal serum testosterone >150 ng/dl (5.2 nmol/L); serum PSA concentration >2 ng/ml (or, when applicable, >0.2 ng/ml following radical prostatectomy or >2 ng/mL above the post-radiotherapy nadir following radiotherapy); body mass index ≥18.0 at screening and/or baseline (i.e., the subject's BMI prior to treatment commencing); and Eastern Cooperative Oncology Group (ECOG) performance status of 0 or 1. Patients with advanced, localized MON1 or M1 disease with clinically significant symptoms or visceral involvement, who required immediate GnRH therapy, chemotherapy, or radiation therapy were not eligible for the trial.
PSA levels were measured at each visit.

[5] = system: patients with advanced prostate cancer; assay: Example 8: treatment-emergent adverse events (safety population)
Protocol: The core tablets were coated with a film coating comprising hypromellose 2910 (21.36 mg), titanium dioxide (2.4 mg), and red ferric oxide (0.06 mg).
For patients receiving leuprolide acetate (leuprorelin), on-treatment study visits occurred at baseline (day 1, week 1), day 1 of weeks 2, 3, and 5, and then every 4 weeks until week 25, and then at 12 week intervals (week 37 and 49). Patients on leuprorelin received their final injection at week 37, day 1, and the week 49, day 1 visit was considered the end of leuprorelin exposure. Patients receiving leuprorelin at visits at 16 (EOT), 20 (follow-up visit), and 24 (EOS) weeks after the last leuprorelin injection.
Efficacy and safety analyses were conducted using a safety population (received ≥1 dose of study drug). […] Safety was assessed by recording the incidence, severity, and types of treatment-emergent adverse events; by physical examination (including slit lamp examination of the anterior eye); and by evaluating changes from baseline in weight, vital signs, 12-lead electrocardiogram (ECG), and clinical laboratory parameters. […] Adverse events were coded using the Medical Dictionary for Regulatory Activities version 19.0 and graded according to National Cancer Institute Common Terminology Criteria version 4.03 (Tables 7 and 8). Safety-related haematology, chemistry, and urinalysis measurements were taken at each study visit and analysed at a central laboratory (LabCorp). Phospholipidosis was assessed as part of the safety assessments.

CCNC(=O)[C@@H]1CCCN1C(=O)[C@H](CCCNC(=N)N)NC(=O)[C@H](CC(C)C)NC(=O)[C@@H](CC(C)C)NC(=O)[C@H](Cc1ccc(O)cc1)NC(=O)[C@H](CO)NC(=O)[C@H](Cc1c[nH]c2ccccc12)NC(=O)[C@H](Cc1c[nH]cn1)NC(=O)[C@@H]1CCC(=O)N1 [Leuprorelin, leuprolide acetate]
AMS total score, mean ([1]; Baseline): 28.3 | AMS total score after treatment, mean (95% CI) percent change from baseline ([1]; EOS): 49.9 (21.0-78.7) % | AMS total score after treatment, mean (95% CI) percent change from baseline ([1]; EOT): 61.0 (22.7-99.2) % | AMS total score after treatment, mean (95% CI) percent change from baseline ([1]; Follow-up): 53.8 (18.2-89.4) % | AMS total score, mean percent change from baseline ([1]; W5, D1): 10.1% | AMS total score, mean percent change from baseline ([1]; W13, D1): 21.9% | AMS total score, mean percent change from baseline ([1]; W25, D1): 47.0% | AMS total score, mean percent change from baseline ([1]; W37, D1): 49.4% | AMS total score, mean percent change from baseline ([1]; W49, D1): 60.0% | FSH Mean (Std Dev) ([2]; Baseline): 19.688 (19.1894) IU/L | FSH Median ([2]; Baseline): 14.500 IU/L | FSH Mean (Std Dev) ([2]; Week 2, Day 1): 7.650 (5.4542) IU/L | FSH Median ([2]; Week 2, Day 1): 5.150 IU/L | FSH Mean (Std Dev) ([2]; Week 5, Day 1): 2.946 (1.4428) IU/L | FSH Median ([2]; Week 5, Day 1): 2.550 IU/L | FSH Mean (Std Dev) ([2]; Week 13, Day 1): 4.625 (2.5594) IU/L | FSH Median ([2]; Week 13, Day 1): 3.600 IU/L | FSH Mean (Std Dev) ([2]; Week 25, Day 1): 5.043 (2.8221) IU/L | FSH Median ([2]; Week 25, Day 1): 4.400 IU/L | FSH Mean (Std Dev) ([2]; Week 49, Day 1): 5.145 (2.8201) IU/L | FSH Median ([2]; Week 49, Day 1): 4.250 IU/L | median FSH ([2]; after 48 weeks of treatment): ~4.2 mIU/mL | Testosterone Mean (Std Dev) ([3]; Baseline): 11.363 (5,0204) nmol/L | Testosterone Median ([3]; Baseline): 11.120 nmol/L | Median testosterone ([3]; EOS): 13.5 ng/dL | Median testosterone ([3]; EOT): 9.8 ng/dL | Testosterone Mean (Std Dev) ([3]; End of Study): 1.695 (3.0345) nmol/L | Testosterone Median ([3]; End of Study): 0.470 nmol/L | Testosterone Mean (Std Dev) ([3]; End of Treatment): 0.641 (0.9616) nmol/L | Testosterone Median ([3]; End of Treatment): 0.340 nmol/L | Testosterone Mean (Std Dev) ([3]; Follow-Up): 0.992 (2.2948) nmol/L | Testosterone Median ([3]; Follow-Up): 0.340 nmol/L | Median testosterone ([3]; Follow-up visit): 9.8 ng/dL | Testosterone Mean (Std Dev) ([3]; Week 49, Day 1): 0.478 (0.6313) nmol/L | Testosterone Median ([3]; Week 49, Day 1): 0.300 nmol/L | course of serum testosterone levels ([3]; leuprolide acetate 22.5 mg SC): rose during the first 1-2 weeks of therapy then declined to castration levels by Week 5 Day 1; also recorded: rose during the first 1 to 2 weeks of therapy then declined to castrate levels by Week 5 Day 1 | Median time from first dose to PSA nadir ([4]; Leuprolide Q12W): 20.5 Weeks | patients with ≥50% serum PSA reduction ([4]; after 4 weeks of treatment): 20% | patients with ≥90% serum PSA reduction ([4]; after 4 weeks of treatment): 0% | Cerebral haemorrhage, Grade ≥3 ([5]; Leuprorelin Q12W): 0 n (%) | Cerebrovascular accident, Grade ≥3 ([5]; Leuprorelin Q12W): 0 n (%) | Death (Table 7) ([5]; Leuprorelin Q12W): 1 (4) n (%) | Death, Grade ≥3 (Table 8) ([5]; Leuprorelin Q12W): 0 n (%) | Musculoskeletal pain, Grade ≥3 ([5]; Leuprorelin Q12W): 0 n (%) | Sudden death, Grade ≥3 ([5]; Leuprorelin Q12W): 0 n (%) | Acute coronary syndrome, Grade ≥3 ([5]; in vivo): 0 n (%) | Adverse event resulting in study drug discontinuation ([5]; in vivo): 0 n (%) | Alanine aminotransferase increased, Grade ≥3 ([5]; in vivo): 0 n (%) | Any adverse event ([5]; in vivo): 23 (96) n (%) | Arthralgia, Grade ≥3 (Table 8) ([5]; in vivo): 0 n (%) | Aspartate aminotransferase increased, Grade ≥3 ([5]; in vivo): 0 n (%) | Atrial flutter, Grade ≥3 ([5]; in vivo): 0 n (%) | Bladder cancer, Grade ≥3 ([5]; in vivo): 0 n (%) | Cervical vertebral fracture, Grade ≥3 ([5]; in vivo): 0 n (%) | Diabetes mellitus, Grade ≥3 ([5]; in vivo): 1 (4) n (%) | Drug-related adverse event ([5]; in vivo): 18 (75) n (%) | Fatigue, Grade ≥3 (Table 8) ([5]; in vivo): 0 n (%) | Gamma-glutamyltransferase increased, Grade ≥3 ([5]; in vivo): 0 n (%) | Grade ≥3 adverse event (Table 7) ([5]; in vivo): 2 (8) n (%) | Hypercalcaemia, Grade ≥3 ([5]; in vivo): 0 n (%) | Hypertension, Grade ≥3 ([5]; in vivo): 0 n (%) | Hypotension, Grade ≥3 ([5]; in vivo): 0 n (%) | Inguinal hernia, Grade ≥3 ([5]; in vivo): 0 n (%) | Joint dislocation, Grade ≥3 ([5]; in vivo): 0 n (%) | Metastases to bone, Grade ≥3 ([5]; in vivo): 0 n (%) | Myocardial infarction, Grade ≥3 ([5]; in vivo): 1 (4) n (%) | Non-cardiac chest pain, Grade ≥3 ([5]; in vivo): 0 n (%) | Osteoarthritis, Grade ≥3 ([5]; in vivo): 0 n (%) | Patients with at least 1 Grade ≥3 adverse events (Table 8) ([5]; in vivo): 2 (8) n (%) | Procedural pain, Grade ≥3 ([5]; in vivo): 0 n (%) | Sepsis, Grade ≥3 ([5]; in vivo): 0 n (%) | Serious adverse event ([5]; in vivo): 2 (8) n (%) | Syncope, Grade ≥3 ([5]; in vivo): 0 n (%) | Transient ischaemic attack, Grade ≥3 ([5]; in vivo): 0 n (%) | Urinary tract infection, Grade ≥3 ([5]; in vivo): 0 n (%) | hot flush (most common adverse event), patients ([5]; in vivo): 15 (63%) n (%)
